{
  "source": "patent US20210155670A1",
  "about": "“SYSTEMS AND METHODS FOR THE PREPARATION OF PEPTIDE-MHC-I COMPLEXES WITH NATIVE GLYCAN MODIFICATIONS” (The Regents of the University of California, priority 2019, published 2021)",
  "key": {"[1]": {"target": "T1, HLA-A*02:01/TAPBPR complex (Homo sapiens, UniProt P04439+P61769, D140Y/D185E/D98H/E176V/E277Q/G131W/G231S/I119V/I121R/I166T/I218V/N151K/N90K/P208A/P217A/Q86G/Q94H/R138H/R169H)", "T1 construct": "human beta-2 microglobulin signal peptide (N); TEV protease site (C, cleaved yes); FOS leucine zipper (C, cleaved yes); made in house; host or cells: CHO cells (CHO-K1s / CHO-K1s C1s-/-), co-transfected, secreted", "assay": "Native gel shift assay of peptide binding to HLA-A*02:01/TAPBPR complex"}, "[2]": {"target": "T2, HLA-A*68:02/TAPBPR complex (Homo sapiens, UniProt P04439+P61769, A269V/D140Y/D185E/E176V/E277Q/E87N/F33Y/G231S/I121R/I166T/I218V/L180W/N151K/P208A/P217A/Q86R/R138H/R169H/R297K/S129P/V36M)", "T2 construct": "human beta-2 microglobulin signal peptide (N); TEV protease site (C, cleaved yes); FOS leucine zipper (C, cleaved yes); made in house; host or cells: CHO cells", "assay": "Native gel shift assay of peptide binding to HLA-A*68:02/TAPBPR complex", "conditions": "Example 2, 10-molar excess of peptide", "excerpt": "CHO-derived HLA-A*02:01/TAPBPR complexes can be loaded with high-affinity TAX9 and MART-1 peptides (FIG. 11D). […] The two alleles have considerable sequence homology in the peptide-binding groove formed by the α1/α2 domains, resulting in a shared preference for a Val, Leu, Ala or Ile at the peptide anchor position 9, but marked variation at anchor position 2 where HLA-A*02:01 has a preference for Leu while HLA-A*68:02 prefers Thr (FIG. 11A). […] Structure-based modeling (Nerli and Sgourakis, bioRxiv, 2020.03.23.004176 (2020)) confirmed A-pocket hydrogen bonding interactions between peptide anchor position L2 with the K66 sidechain, Y7 with Y99 from HLA-A*02:01, and anchor position T2 with N66 and N63 from HLA-A*68:02 (FIG. 11B). According to the electrophoretic mobility shift assay, all predicted high-affinity peptides bound to HLA-A*02:01 and HLA-A*68:02 resulting in discrete pMHC-I protein bands. (FIG. 11C).\nGels were imaged using an Innotech FluoChem2 system (Genetic Technologies Grover, Mo.)."}, "[3]": {"target": "T3, HLA-A*24:02/TAPBPR complex (Homo sapiens, UniProt P04439+P61769, D101N/D140Y/E190D/F33S/G103R/G107R/I119L/I121M/L105A/N151K/N90K/Q86E/Q94H/R106L/R138H/R89G/T104I/V100E/W191G/Y123F)", "T3 construct": "human beta-2 microglobulin signal peptide (N); TEV protease site (C, cleaved yes); FOS leucine zipper (C, cleaved yes); made in house; host or cells: CHO cells", "assay": "Native gel electrophoresis of HLA-A*24:02/TAPBPR complex with peptides", "assay_type": "binding", "conditions": "FIG. 14c"}, "[4]": {"conditions": "Example 2, 10-fold molar excess of peptide, native gel"}},
  "note": "“Also recorded” adds a separate entry of the source. Where two headings read alike, the source gives them in different places. Ends that are not written are not given here.",
  "data": [
    {"sequence": "RGPGRAFVFI [Peptide P18_I10]", "values": [
      {"measurement": "native gel band shift of MHC-I (pMHC formation)", "setting": "[1]", "result": "did not"},
      {"measurement": "pMHC-I band formation in electrophoretic mobility shift assay", "setting": "[1]; [4]", "result": "non-binding"}
    ]},
    {"sequence": "GLLGIGILTV [GM1]", "values": [
      {"measurement": "pMHC-I band formation in electrophoretic mobility shift assay", "setting": "[2]", "result": "significant binding"}
    ]},
    {"sequence": "TLACFVLAAV", "values": [
      {"measurement": "pMHC-I band formation in electrophoretic mobility shift assay", "setting": "[1]", "result": "little or no binding"}
    ]},
    {"sequence": "YPNVNIHNF [NIH p29, non-specific (NS) negative control peptide]", "values": [
      {"measurement": "native gel band shift of MHC-I (pMHC formation)", "setting": "[1]; Example 1, SEC purified unzippered complex, 5:1 molar ratio, 1 h room temperature", "result": "did not"},
      {"measurement": "pMHC-I band formation in electrophoretic mobility shift assay", "setting": "[1]; [4]", "result": "non-binding"}
    ]},
    {"sequence": "WLMWLIINL", "values": [
      {"measurement": "pMHC-I band formation in electrophoretic mobility shift assay", "setting": "[1]; [4]", "result": "little or no binding"}
    ]},
    {"sequence": "VYGFVRACL [PHOX2B]", "values": [
      {"measurement": "complex dissociation in the presence of peptide, native gel", "setting": "[3]", "result": "complex dissociation"}
    ]},
    {"sequence": "RYPLTFGWCF [Nef138-10]", "values": [
      {"measurement": "complex dissociation in the presence of peptide, native gel", "setting": "[3]", "result": "complex dissociation"}
    ]},
    {"sequence": "LLFGVPVYV [TAX9]", "values": [
      {"measurement": "native gel band shift of MHC-I (pMHC formation)", "setting": "[1]", "result": "resulted in a band shift"},
      {"measurement": "pMHC-I band formation in electrophoretic mobility shift assay", "setting": "[1]; [4]", "result": "formation of discrete bands corresponding to properly conformed pMHC species; also recorded: can be loaded; also recorded: pMHC-I formation"}
    ]}
  ]
}
